Patent publication US11098040B2, “Compounds and methods of use” (Ferro Therapeutics, Inc., priority 2018, dated 2021)

System: not listed separately
Experiment: Whole blood stability, human
Type: in vitro ADME
Conditions: 0 min
Text: (§1) The results of the assay on stability in blood and IC50 values for pancreatic cancer cell line KP4 are given below in Table 24.

Row | Structure (SMILES) | Whole Blood Stability % Remaining at 37° C. Human [%]
1 | CN(C)C(=O)[C@H]1Cc2c([nH]c3ccccc23)[C@H](c2ccc(C(=O)N3CCC(O)CC3)cc2)N1C(=O)CCl [Compound 45] | 100.0
2 | CN(C)C(=O)[C@H]1Cc2c([nH]c3ccccc23)[C@H](c2ccc(S(=O)(=O)N3CCC(O)CC3)cc2)N1C(=O)CCl [Compound 49] | 100.0
3 | COCCN(C(=O)c1ccc([C@H]2c3[nH]c4ccccc4c3C[C@H](C(=O)N(C)C)N2C(=O)CCl)cc1)C(C)(C)C [Compound 52] | 100.0
4 | CN(C)C(=O)[C@H]1Cc2c([nH]c3ccccc23)[C@H](c2ccc(C(=O)N(CCC(=O)OC(C)(C)C)C(C)(C)C)cc2)N1C(=O)CCl [Compound 54] | 100.0
5 | CN(C)C(=O)c1ccc([C@H]2c3sc4ccccc4c3C[C@H](C(=O)N(C)C)N2C(=O)CCl)cc1 [Compound 55] | 100.0
6 | CN(C)C(=O)c1ccc([C@@H]2c3sc4ccccc4c3C[C@H](C(=O)N(C)C)N2C(=O)CCl)cc1 [Compound 55a] | 100.0
7 | CN(C)C(=O)[C@H]1Cc2c([nH]c3ccccc23)[C@H](c2ccc(NC(=O)OC(C)(C)C)cc2)N1C(=O)CCl [Compound 56] | 100.0
8 | CN(C)C(=O)c1ccc([C@H]2c3[nH]c4ccccc4c3C[C@H](C(N)=O)N2C(=O)CCl)cc1 [Compound 58] | 100.0
9 | CN(C)C(=O)[C@H]1Cc2c([nH]c3ccccc23)[C@H](c2ccc(S(C)(=O)=O)cc2)N1C(=O)CCl [Compound 59] | 100.0

Same assay, conditions: 30 min

Row | Structure (SMILES) | Whole Blood Stability % Remaining at 37° C. Human [%]
10 | CN(C)C(=O)[C@H]1Cc2c([nH]c3ccccc23)[C@H](c2ccc(C(=O)N3CCC(O)CC3)cc2)N1C(=O)CCl [Compound 45] | 71.4
11 | CN(C)C(=O)[C@H]1Cc2c([nH]c3ccccc23)[C@H](c2ccc(S(=O)(=O)N3CCC(O)CC3)cc2)N1C(=O)CCl [Compound 49] | 43.0
12 | COCCN(C(=O)c1ccc([C@H]2c3[nH]c4ccccc4c3C[C@H](C(=O)N(C)C)N2C(=O)CCl)cc1)C(C)(C)C [Compound 52] | 51.8
13 | CN(C)C(=O)[C@H]1Cc2c([nH]c3ccccc23)[C@H](c2ccc(C(=O)N(CCC(=O)OC(C)(C)C)C(C)(C)C)cc2)N1C(=O)CCl [Compound 54] | 44.9
14 | CN(C)C(=O)c1ccc([C@H]2c3sc4ccccc4c3C[C@H](C(=O)N(C)C)N2C(=O)CCl)cc1 [Compound 55] | 50.6
15 | CN(C)C(=O)c1ccc([C@@H]2c3sc4ccccc4c3C[C@H](C(=O)N(C)C)N2C(=O)CCl)cc1 [Compound 55a] | 42.6
16 | CN(C)C(=O)[C@H]1Cc2c([nH]c3ccccc23)[C@H](c2ccc(NC(=O)OC(C)(C)C)cc2)N1C(=O)CCl [Compound 56] | 59.3
17 | CN(C)C(=O)c1ccc([C@H]2c3[nH]c4ccccc4c3C[C@H](C(N)=O)N2C(=O)CCl)cc1 [Compound 58] | 64.4
18 | CN(C)C(=O)[C@H]1Cc2c([nH]c3ccccc23)[C@H](c2ccc(S(C)(=O)=O)cc2)N1C(=O)CCl [Compound 59] | 48.9

Same assay, conditions: 60 min

Row | Structure (SMILES) | Whole Blood Stability % Remaining at 37° C. Human [%]
19 | CN(C)C(=O)[C@H]1Cc2c([nH]c3ccccc23)[C@H](c2ccc(C(=O)N3CCC(O)CC3)cc2)N1C(=O)CCl [Compound 45] | 56.4
20 | CN(C)C(=O)[C@H]1Cc2c([nH]c3ccccc23)[C@H](c2ccc(S(=O)(=O)N3CCC(O)CC3)cc2)N1C(=O)CCl [Compound 49] | 13.7
21 | COCCN(C(=O)c1ccc([C@H]2c3[nH]c4ccccc4c3C[C@H](C(=O)N(C)C)N2C(=O)CCl)cc1)C(C)(C)C [Compound 52] | 59.4
22 | CN(C)C(=O)[C@H]1Cc2c([nH]c3ccccc23)[C@H](c2ccc(C(=O)N(CCC(=O)OC(C)(C)C)C(C)(C)C)cc2)N1C(=O)CCl [Compound 54] | 40.4
23 | CN(C)C(=O)c1ccc([C@H]2c3sc4ccccc4c3C[C@H](C(=O)N(C)C)N2C(=O)CCl)cc1 [Compound 55] | 20.6
24 | CN(C)C(=O)c1ccc([C@@H]2c3sc4ccccc4c3C[C@H](C(=O)N(C)C)N2C(=O)CCl)cc1 [Compound 55a] | 16.7
25 | CN(C)C(=O)[C@H]1Cc2c([nH]c3ccccc23)[C@H](c2ccc(NC(=O)OC(C)(C)C)cc2)N1C(=O)CCl [Compound 56] | 60.7
26 | CN(C)C(=O)c1ccc([C@H]2c3[nH]c4ccccc4c3C[C@H](C(N)=O)N2C(=O)CCl)cc1 [Compound 58] | 40.5
27 | CN(C)C(=O)[C@H]1Cc2c([nH]c3ccccc23)[C@H](c2ccc(S(C)(=O)=O)cc2)N1C(=O)CCl [Compound 59] | 51.5

System: KP4
Experiment: Cell viability assay (CellTiter Glo), pancreatic ductal adenocarcinoma KP4
Type: cell-based, human
Conditions: Homo sapiens, KP-4, 96 h, pancreatic cancer cell line KP4, 96 hours, CellTiter Glo; read-out: IC50 μM KP4
Method in brief: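 Luminescent ATP readout (CellTiter Glo) after 96 h compound exposure, normalized to DMSO-treated cells as maximum. Compounds ran in duplicate, nine 3-fold steps from 30 μM down to 4.6 nM, final DMSO ≤0.25%; KP4 plated overnight at 1,000–10,000 cells/well. Outputs: IC50, relative IC50 or % top inhibition.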

Row | Structure (SMILES) | IC50 [µM]
28 | CN(C)C(=O)[C@H]1Cc2c([nH]c3ccccc23)[C@H](c2ccc(C(=O)N3CCC(O)CC3)cc2)N1C(=O)CCl [Compound 45] | > 1
29 | CN(C)C(=O)[C@H]1Cc2c([nH]c3ccccc23)[C@H](c2ccc(S(=O)(=O)N3CCC(O)CC3)cc2)N1C(=O)CCl [Compound 49] | > 1
30 | COCCN(C(=O)c1ccc([C@H]2c3[nH]c4ccccc4c3C[C@H](C(=O)N(C)C)N2C(=O)CCl)cc1)C(C)(C)C [Compound 52] | 0.01 to 0.1
31 | CN(C)C(=O)[C@H]1Cc2c([nH]c3ccccc23)[C@H](c2ccc(C(=O)N(CCC(=O)OC(C)(C)C)C(C)(C)C)cc2)N1C(=O)CCl [Compound 54] | 0.01 to 0.1
32 | CN(C)C(=O)c1ccc([C@H]2c3sc4ccccc4c3C[C@H](C(=O)N(C)C)N2C(=O)CCl)cc1 [Compound 55] | 0.1 to 0.5
33 | CN(C)C(=O)c1ccc([C@@H]2c3sc4ccccc4c3C[C@H](C(=O)N(C)C)N2C(=O)CCl)cc1 [Compound 55a] | 0.5 to 1
34 | CN(C)C(=O)[C@H]1Cc2c([nH]c3ccccc23)[C@H](c2ccc(NC(=O)OC(C)(C)C)cc2)N1C(=O)CCl [Compound 56] | 0.01 to 0.1
35 | CN(C)C(=O)c1ccc([C@H]2c3[nH]c4ccccc4c3C[C@H](C(N)=O)N2C(=O)CCl)cc1 [Compound 58] | > 1
36 | CN(C)C(=O)[C@H]1Cc2c([nH]c3ccccc23)[C@H](c2ccc(S(C)(=O)=O)cc2)N1C(=O)CCl [Compound 59] | 0.1 to 0.5

System: not listed separately
Experiment: Whole blood stability, mouse
Type: in vitro ADME
Conditions: 0 min
Text: as §1

Row | Structure (SMILES) | Whole Blood Stability % Remaining at 37° C. Mouse [%]
37 | CN(C)C(=O)[C@H]1Cc2c([nH]c3ccccc23)[C@H](c2ccc(C(=O)N3CCC(O)CC3)cc2)N1C(=O)CCl [Compound 45] | 100.0
38 | CN(C)C(=O)[C@H]1Cc2c([nH]c3ccccc23)[C@H](c2ccc(S(=O)(=O)N3CCC(O)CC3)cc2)N1C(=O)CCl [Compound 49] | 100.0
39 | COCCN(C(=O)c1ccc([C@H]2c3[nH]c4ccccc4c3C[C@H](C(=O)N(C)C)N2C(=O)CCl)cc1)C(C)(C)C [Compound 52] | 100.0
40 | CN(C)C(=O)[C@H]1Cc2c([nH]c3ccccc23)[C@H](c2ccc(C(=O)N(CCC(=O)OC(C)(C)C)C(C)(C)C)cc2)N1C(=O)CCl [Compound 54] | 100.0
41 | CN(C)C(=O)c1ccc([C@H]2c3sc4ccccc4c3C[C@H](C(=O)N(C)C)N2C(=O)CCl)cc1 [Compound 55] | 100.0
42 | CN(C)C(=O)c1ccc([C@@H]2c3sc4ccccc4c3C[C@H](C(=O)N(C)C)N2C(=O)CCl)cc1 [Compound 55a] | 100.0
43 | CN(C)C(=O)[C@H]1Cc2c([nH]c3ccccc23)[C@H](c2ccc(NC(=O)OC(C)(C)C)cc2)N1C(=O)CCl [Compound 56] | 100.0
44 | CN(C)C(=O)c1ccc([C@H]2c3[nH]c4ccccc4c3C[C@H](C(N)=O)N2C(=O)CCl)cc1 [Compound 58] | 100.0
45 | CN(C)C(=O)[C@H]1Cc2c([nH]c3ccccc23)[C@H](c2ccc(S(C)(=O)=O)cc2)N1C(=O)CCl [Compound 59] | 100.0

Same assay, conditions: 30 min

Row | Structure (SMILES) | Whole Blood Stability % Remaining at 37° C. Mouse [%]
46 | CN(C)C(=O)[C@H]1Cc2c([nH]c3ccccc23)[C@H](c2ccc(C(=O)N3CCC(O)CC3)cc2)N1C(=O)CCl [Compound 45] | 91.2
47 | CN(C)C(=O)[C@H]1Cc2c([nH]c3ccccc23)[C@H](c2ccc(S(=O)(=O)N3CCC(O)CC3)cc2)N1C(=O)CCl [Compound 49] | 82.5
48 | COCCN(C(=O)c1ccc([C@H]2c3[nH]c4ccccc4c3C[C@H](C(=O)N(C)C)N2C(=O)CCl)cc1)C(C)(C)C [Compound 52] | 79.9
49 | CN(C)C(=O)[C@H]1Cc2c([nH]c3ccccc23)[C@H](c2ccc(C(=O)N(CCC(=O)OC(C)(C)C)C(C)(C)C)cc2)N1C(=O)CCl [Compound 54] | 42.9
50 | CN(C)C(=O)c1ccc([C@H]2c3sc4ccccc4c3C[C@H](C(=O)N(C)C)N2C(=O)CCl)cc1 [Compound 55] | 51.4
51 | CN(C)C(=O)c1ccc([C@@H]2c3sc4ccccc4c3C[C@H](C(=O)N(C)C)N2C(=O)CCl)cc1 [Compound 55a] | 82.3
52 | CN(C)C(=O)[C@H]1Cc2c([nH]c3ccccc23)[C@H](c2ccc(NC(=O)OC(C)(C)C)cc2)N1C(=O)CCl [Compound 56] | 84.1
53 | CN(C)C(=O)c1ccc([C@H]2c3[nH]c4ccccc4c3C[C@H](C(N)=O)N2C(=O)CCl)cc1 [Compound 58] | 89.9
54 | CN(C)C(=O)[C@H]1Cc2c([nH]c3ccccc23)[C@H](c2ccc(S(C)(=O)=O)cc2)N1C(=O)CCl [Compound 59] | 97.9

Same assay, conditions: 60 min

Row | Structure (SMILES) | Whole Blood Stability % Remaining at 37° C. Mouse [%]
55 | CN(C)C(=O)[C@H]1Cc2c([nH]c3ccccc23)[C@H](c2ccc(C(=O)N3CCC(O)CC3)cc2)N1C(=O)CCl [Compound 45] | 81.5
56 | CN(C)C(=O)[C@H]1Cc2c([nH]c3ccccc23)[C@H](c2ccc(S(=O)(=O)N3CCC(O)CC3)cc2)N1C(=O)CCl [Compound 49] | 52.5
57 | COCCN(C(=O)c1ccc([C@H]2c3[nH]c4ccccc4c3C[C@H](C(=O)N(C)C)N2C(=O)CCl)cc1)C(C)(C)C [Compound 52] | 52.0
58 | CN(C)C(=O)[C@H]1Cc2c([nH]c3ccccc23)[C@H](c2ccc(C(=O)N(CCC(=O)OC(C)(C)C)C(C)(C)C)cc2)N1C(=O)CCl [Compound 54] | 13.8
59 | CN(C)C(=O)c1ccc([C@H]2c3sc4ccccc4c3C[C@H](C(=O)N(C)C)N2C(=O)CCl)cc1 [Compound 55] | 24.6
60 | CN(C)C(=O)c1ccc([C@@H]2c3sc4ccccc4c3C[C@H](C(=O)N(C)C)N2C(=O)CCl)cc1 [Compound 55a] | 60.4
61 | CN(C)C(=O)[C@H]1Cc2c([nH]c3ccccc23)[C@H](c2ccc(NC(=O)OC(C)(C)C)cc2)N1C(=O)CCl [Compound 56] | 38.9
62 | CN(C)C(=O)c1ccc([C@H]2c3[nH]c4ccccc4c3C[C@H](C(N)=O)N2C(=O)CCl)cc1 [Compound 58] | 67.0
63 | CN(C)C(=O)[C@H]1Cc2c([nH]c3ccccc23)[C@H](c2ccc(S(C)(=O)=O)cc2)N1C(=O)CCl [Compound 59] | 65.6
